Test results published in US12178842B2, “PCSK9 antagonist compounds” (MERCK SHARP & DOHME LLC, priority 2019, dated 2024).

Tests used:
Type in all cases: binding
[1] = molecular target: T1, PCSK9 (Homo sapiens, UniProt Q8NBP7); experiment: PCSK9 Alexa FRET Ultra TR-FRET assay
T1 construct: biotin (biotinylated); purchased
Description: A separate solution containing 1920 nM of the AlexaFluor tagged cyclic peptide is made in the same buffer system. […] The reaction is incubated at room temperature for at least two hours prior to fluorescence measurements using an Envision Multilabel Reader. IC50 values are determined by fitting data to a sigmoidal dose-response curve using nonlinear regression. Ki is then calculated from the Ic50 and the KD of AF cyclic peptide. Counts (B-counts) of the europium-labeled PCSK9 are followed to observe if compounds are adversely affecting PCSK9. A fall off of the B-counts is likely indicates a false positive of inhibition. Data from this procedure is reported as “Ki Ultra=‘numerical value’ (data reported is nanomolar)”

[2] = molecular target: T1, PCSK9; experiment: PCSK9 Alexa FRET Standard TR-FRET assay; conditions: Ki calculated from IC50 and KD of AF cyclic peptide Reagent A; 0.5 nM PCSK9, 20 nM AF cyclic peptide; read-out: Alexa FRET Stdt TR-FRET
Description: A solution containing 1 nM biotinylated PCSK9+2.5 nM Lance Streptavidin Europium (Strep-Eu) is made in 50 mM HEPES pH 7.4, 0.15 M NaCl, 5 mM CaCl2, 0.01% BSA, and 0.01% Surfactant P20. A separate solution containing 40 nM of the AlexaFluor tagged cyclic peptide is made in the same buffer system. An Echo is used to transfer 0.750 ul of compound to an assay plate followed by the addition of 15 ul of PCSK9+Stept-Eu and 15 ul of AF peptide. The final assay volume is 30.750 ul containing 0.5 nM PCSK9, 1.25 nM Strep-Eu, and 20 nM AF cyclic peptide. The reaction is incubated at room temperature for at least two hours prior to fluorescence measurements using an Envision Multilabel Reader. IC50 values are determined by fitting data to a sigmoidal dose-response curve using nonlinear regression. Ki is then calculated from the Ic50 and the KD of AF cyclic peptide. Counts (B-counts) of the europium-labeled PCSK9 are followed to observe if compounds are adversely PCSK9. A fall off of the B-counts likely indicates a false positive of inhibition. Data from this procedure is reported as “A=‘numerical value’ (nanomolar)”

[3] = molecular target: T1, PCSK9; experiment: PCSK9 Alexa FRET Plus TR-FRET assay
Description: A separate solution containing 1920 nM of the AlexaFluor tagged cyclic peptide is made in the same buffer system. […] The reaction is incubated at room temperature for at least two hours prior to fluorescence measurements using an Envision Multilabel Reader. IC50 values are determined by fitting data to a sigmoidal dose-response curve using nonlinear regression. Ki is then calculated from the Ic50 and the KD of AF cyclic peptide. Counts (B-counts) of the europium-labeled PCSK9 are followed to observe if compounds are adversely affecting PCSK9. A fall off of the B-counts is likely indicates a false positive of inhibition. Data from this procedure is reported as “P=‘numerical value’ (nanomolar)”

[4] = Ki Ultra, calculated from IC50 and KD of AF cyclic peptide, 0.5 nM PCSK9, 960 nM AF cyclic peptide, read-out: Alexa FRET Ultra TR-FRET
[5] = Ki calculated from IC50 and KD of AF cyclic peptide Reagent B, 0.5 nM PCSK9, 960 nM AF cyclic peptide, read-out: Alexa FRET Plus TR-FRET

T1 sequence (Q8NBP7 153-692): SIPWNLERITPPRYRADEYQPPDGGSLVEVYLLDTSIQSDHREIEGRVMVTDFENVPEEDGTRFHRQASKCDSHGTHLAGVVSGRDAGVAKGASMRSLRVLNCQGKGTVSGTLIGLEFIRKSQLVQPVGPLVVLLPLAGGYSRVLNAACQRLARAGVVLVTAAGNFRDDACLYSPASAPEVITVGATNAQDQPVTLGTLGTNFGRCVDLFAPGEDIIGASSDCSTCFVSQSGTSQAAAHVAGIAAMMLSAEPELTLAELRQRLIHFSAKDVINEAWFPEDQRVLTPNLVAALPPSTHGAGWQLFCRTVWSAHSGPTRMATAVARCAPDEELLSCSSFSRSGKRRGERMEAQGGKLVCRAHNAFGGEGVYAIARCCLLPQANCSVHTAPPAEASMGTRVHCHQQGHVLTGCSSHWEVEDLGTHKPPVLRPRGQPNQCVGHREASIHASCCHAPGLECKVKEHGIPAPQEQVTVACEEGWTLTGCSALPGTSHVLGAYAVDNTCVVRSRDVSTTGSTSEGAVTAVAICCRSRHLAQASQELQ

Ki [1, 4]	Ki [3, 5]	SMILES	Ki [1]	Ki [2]	Ki [3]
–	–	COc1ccc(C[C@@H]2NC(=O)[C@H]([C@@H](C)O)NC(=O)[C@@H]3[C@@H]4CCN3C(=O)[C@@H]3Cc5cn(c6ccc(F)cc56)CCCCCCN(Cc5ccc(cc5)CCNC(=O)[C@]5(C)CCCN5C2=O)C(=O)CCC(=O)N[C@@H](C)C(=O)N[C@H](CNC(=O)COCCOCCNC(=O)COCCOCCNC(=O)CC[C@H](NC(=O)CCCCC[N+](C)(C)CCNC(=O)CCCCCCCCCCCCCCCCC(=O)O)C(=O)O)C(=O)N[C@@H](Cc2cccc(c2)CNC(=O)CO4)C(=O)N3)cc1 [Ex-5]	7 pM	< 1260 pM	< 6 pM
–	–	COc1ccc(C[C@@H]2NC(=O)[C@H]([C@@H](C)O)NC(=O)[C@@H]3[C@@H]4CCN3C(=O)[C@@H]3Cc5cn(c6ccc(F)cc56)CCCCCCN(Cc5ccc(cc5)CCNC(=O)[C@]5(C)CCCN5C2=O)C(=O)CCC(=O)N[C@@H](C)C(=O)N[C@H](CNC(=O)COCCOCCNC(=O)CCCCC[N+](C)(C)CCNC(=O)COCCOCCNC(=O)COCCOCCNC(=O)CC[C@H](NC(=O)CCCCCCCCCCCCCCCCC(=O)O)C(=O)O)C(=O)N[C@@H](Cc2cccc(c2)CNC(=O)CO4)C(=O)N3)cc1 [Ex-6]	12 pM	< 1260 pM	9 pM
–	–	COc1ccc(C[C@@H]2NC(=O)[C@H]([C@@H](C)O)NC(=O)[C@@H]3[C@@H]4CCN3C(=O)[C@@H]3Cc5cn(c6ccc(F)cc56)CCCCCCN(Cc5ccc(cc5)CCNC(=O)[C@]5(C)CCCN5C2=O)C(=O)CCC(=O)N[C@@H](C)C(=O)N[C@H](CNC(=O)CCOCCOCC[N+](C)(C)CCNC(=O)CC[C@H](NC(=O)CCCCCCCCCCCCCCCCC(=O)O)C(=O)O)C(=O)N[C@@H](Cc2cccc(c2)CNC(=O)CO4)C(=O)N3)cc1 [Ex-7]	13 pM	< 1260 pM	8 pM
–	–	COc1ccc(C[C@@H]2NC(=O)[C@H]([C@@H](C)O)NC(=O)[C@@H]3[C@@H]4CCN3C(=O)[C@@H]3Cc5cn(c6ccc(F)cc56)CCCCCCN(Cc5ccc(cc5)CCNC(=O)[C@]5(C)CCCN5C2=O)C(=O)CCC(=O)N[C@@H](C)C(=O)N[C@H](CNC(=O)CC[C@H](NC(=O)CCOCCOCC[N+](C)(C)CCNC(=O)COCCOCCNC(=O)COCCOCCNC(=O)CC[C@H](NC(=O)CCCCCCCCCCCCCCCCC(=O)O)C(=O)O)C(=O)O)C(=O)N[C@@H](Cc2cccc(c2)CNC(=O)CO4)C(=O)N3)cc1 [Ex-8]	8 pM	< 1260 pM	16 pM
–	–	COc1ccc(C[C@@H]2NC(=O)[C@H]([C@@H](C)O)NC(=O)[C@@H]3[C@@H]4CCN3C(=O)[C@@H]3Cc5cn(c6ccc(F)cc56)CCCCCCN(Cc5ccc(cc5)CCNC(=O)[C@]5(C)CCCN5C2=O)C(=O)CCC(=O)N[C@@H](C)C(=O)N[C@H](CNC(=O)COCCOCCNC(=O)COCCOCCNC(=O)CC[C@H](NC(=O)CC[C@H](NC(=O)CCOCCOCC[N+](C)(C)CCNC(=O)CCCCCCCCCCCCCCCCC(=O)O)C(=O)O)C(=O)O)C(=O)N[C@@H](Cc2cccc(c2)CNC(=O)CO4)C(=O)N3)cc1 [Ex-9]	7 pM	< 1260 pM	< 6 pM
–	–	COc1ccc(C[C@@H]2NC(=O)[C@H]([C@@H](C)O)NC(=O)[C@@H]3[C@@H]4CCN3C(=O)[C@@H]3Cc5cn(c6ccc(F)cc56)CCCCCCN(Cc5ccc(cc5)CCNC(=O)[C@]5(C)CCCN5C2=O)C(=O)CCC(=O)N[C@@H](C)C(=O)N[C@H](CNC(=O)CCOCCOCC[N+](C)(C)CCNC(=O)COCCOCCNC(=O)COCCOCCNC(=O)CC[C@H](NC(=O)CC[C@H](NC(=O)CCCCCCCCCCCCCCCCC(=O)O)C(=O)O)C(=O)O)C(=O)N[C@@H](Cc2cccc(c2)CNC(=O)CO4)C(=O)N3)cc1 [Ex-10]	6 pM	< 1260 pM	8 pM
6 pM	7 pM	COc1ccc(C[C@@H]2NC(=O)[C@H]([C@@H](C)O)NC(=O)[C@@H]3[C@@H]4CCN3C(=O)[C@@H]3Cc5cn(c6ccc(F)cc56)CCCCCCN(Cc5ccc(cc5)CCNC(=O)[C@]5(C)CCCN5C2=O)C(=O)CCC(=O)N[C@@H](C)C(=O)N[C@H](CNC(=O)CCOCCOCC[N+](C)(C)CCNC(=O)CCOCCOCC[N+](C)(C)CCNC(=O)COCCOCCNC(=O)COCCOCCNC(=O)CC[C@H](NC(=O)CC[C@H](NC(=O)CCCCCCCCCCCCCCC(=O)O)C(=O)O)C(=O)O)C(=O)N[C@@H](Cc2cccc(c2)CNC(=O)CO4)C(=O)N3)cc1 [Ex-11]	–	< 1260 pM	–
7 pM	14 pM	COC(=O)CCCCCCCCCCCCCCCCC(=O)N[C@@H](CCC(=O)NCCOCCOCC(=O)NCCOCCOCC(=O)NCC[N+](C)(C)CCCCCC(=O)NC[C@H]1NC(=O)[C@H](C)NC(=O)CCC(=O)N2CCCCCCn3cc(c4cc(F)ccc43)C[C@@H]3NC(=O)[C@H](Cc4cccc(c4)CNC(=O)CO[C@H]4CCN(C3=O)[C@@H]4C(=O)N[C@@H]([C@@H](C)O)C(=O)N[C@@H](Cc3ccc(OC)cc3)C(=O)N3CCC[C@@]3(C)C(=O)NCCc3ccc(cc3)C2)NC1=O)C(=O)OC [Ex-12]	–	< 1260 pM	–
3 pM	< 6 pM	COc1ccc(C[C@@H]2NC(=O)[C@H]([C@@H](C)O)NC(=O)[C@@H]3[C@@H]4CCN3C(=O)[C@@H]3Cc5cn(c6ccc(F)cc56)CCCCCCN(Cc5ccc(cc5)CCNC(=O)[C@]5(C)CCCN5C2=O)C(=O)CCC(=O)N[C@@H](C)C(=O)N[C@H](CNC(=O)COCCOCC[N+](C)(C)CCOCCNC(=O)COCCOCCNC(=O)COCCOCCNC(=O)CC[C@H](NC(=O)CC[C@H](NC(=O)CCCCCCCCCCCCCCCCC(=O)O)C(=O)O)C(=O)O)C(=O)N[C@@H](Cc2cccc(c2)CNC(=O)CO4)C(=O)N3)cc1 [Ex-13]	–	< 1260 pM	–
–	–	COc1ccc(C[C@@H]2NC(=O)[C@H]([C@@H](C)O)NC(=O)[C@@H]3[C@@H]4CCN3C(=O)[C@@H]3Cc5cn(c6ccc(F)cc56)CCCCCCN(Cc5ccc(cc5)CCNC(=O)[C@]5(C)CCCN5C2=O)C(=O)CCC(=O)N[C@@H](C)C(=O)N[C@H](CNC(=O)CCC[N+](C)(C)CCNC(=O)COCCOCCNC(=O)CC[C@H](NC(=O)CC[C@H](NC(=O)CCCCCCCCCCCCCCCCC(=O)O)C(=O)O)C(=O)O)C(=O)N[C@@H](Cc2cccc(c2)CNC(=O)CO4)C(=O)N3)cc1 [Ex-14]	5 pM	< 1260 pM	< 6 pM
–	–	COc1ccc(C[C@@H]2NC(=O)[C@H]([C@@H](C)O)NC(=O)[C@@H]3[C@@H]4CCN3C(=O)[C@@H]3Cc5cn(c6ccc(F)cc56)CCCCCCN(Cc5ccc(cc5)CCNC(=O)[C@]5(C)CCCN5C2=O)C(=O)CCC(=O)N[C@@H](C)C(=O)N[C@H](CNC(=O)CCOCCOCC[N+](C)(C)CCNC(=O)COCCOCCNC(=O)COCCOCCNC(=O)C[C@H](NC(=O)CCCCCCCCCCCCCCCCC(=O)O)C(=O)O)C(=O)N[C@@H](Cc2cccc(c2)CNC(=O)CO4)C(=O)N3)cc1 [Ex-15]	5 pM	< 1260 pM	< 6 pM
–	–	COc1ccc(C[C@@H]2NC(=O)[C@H]([C@@H](C)O)NC(=O)[C@@H]3[C@@H]4CCN3C(=O)[C@@H]3Cc5cn(c6ccc(F)cc56)CCCCCCN(Cc5ccc(cc5)CCNC(=O)[C@]5(C)CCCN5C2=O)C(=O)CCC(=O)N[C@@H](C)C(=O)N[C@H](CNC(=O)CCOCCOCC[N+](C)(C)CCNC(=O)COCCOCCNC(=O)COCCOCCNC(=O)CC(CC(=O)O)NC(=O)CC[C@H](NC(=O)CCCCCCCCCCCCCCCCC(=O)O)C(=O)O)C(=O)N[C@@H](Cc2cccc(c2)CNC(=O)CO4)C(=O)N3)cc1 (stereo partly drawn) [Ex-16]	8 pM	< 1260 pM	14 pM
18 pM	16 pM	COc1ccc(C[C@@H]2NC(=O)[C@H]([C@@H](C)O)NC(=O)[C@@H]3[C@@H]4CCN3C(=O)[C@@H]3Cc5cn(c6ccc(F)cc56)CCCCCCN(Cc5ccc(cc5)CCNC(=O)[C@]5(C)CCCN5C2=O)C(=O)CCC(=O)N[C@@H](C)C(=O)N[C@H](CN(CCC[N+](C)(C)C)C(=O)COCCOCCNC(=O)COCCOCCNC(=O)CC[C@H](NC(=O)CCCCCCCCCCCCCCCCC(=O)O)C(=O)O)C(=O)N[C@@H](Cc2cccc(c2)CNC(=O)CO4)C(=O)N3)cc1 [Ex-17]	–	< 1260 pM	–
21 pM	23 pM	COc1ccc(C[C@@H]2NC(=O)[C@H]([C@@H](C)O)NC(=O)[C@@H]3[C@@H]4CCN3C(=O)[C@@H]3Cc5cn(c6ccc(F)cc56)CCCCCCN(Cc5ccc(cc5)CCNC(=O)[C@]5(C)CCCN5C2=O)C(=O)CCC(=O)N[C@@H](C)C(=O)N[C@H](CNC(=O)COCCOCCNC(=O)COCCOCCNC(=O)CC[C@H](NC(=O)CCCCCCCCCCCCCCCCC(=O)O)C(=O)O)C(=O)N[C@@H](Cc2cccc(c2)CNC(=O)CO4)C(=O)N3)cc1 [Ex-18]	–	< 1260 pM	–
